The text below walks through data of ChEMBL document CHEMBL1177732, “Triterpene saponins from Clematis chinensis and their potential anti-inflammatory activity” (J Nat Prod, 2010).

Experiment [1] deals with T1, Prostaglandin G/H synthase 2 (Homo sapiens, UniProt P35354).
T1 sequence (P35354 whole entry): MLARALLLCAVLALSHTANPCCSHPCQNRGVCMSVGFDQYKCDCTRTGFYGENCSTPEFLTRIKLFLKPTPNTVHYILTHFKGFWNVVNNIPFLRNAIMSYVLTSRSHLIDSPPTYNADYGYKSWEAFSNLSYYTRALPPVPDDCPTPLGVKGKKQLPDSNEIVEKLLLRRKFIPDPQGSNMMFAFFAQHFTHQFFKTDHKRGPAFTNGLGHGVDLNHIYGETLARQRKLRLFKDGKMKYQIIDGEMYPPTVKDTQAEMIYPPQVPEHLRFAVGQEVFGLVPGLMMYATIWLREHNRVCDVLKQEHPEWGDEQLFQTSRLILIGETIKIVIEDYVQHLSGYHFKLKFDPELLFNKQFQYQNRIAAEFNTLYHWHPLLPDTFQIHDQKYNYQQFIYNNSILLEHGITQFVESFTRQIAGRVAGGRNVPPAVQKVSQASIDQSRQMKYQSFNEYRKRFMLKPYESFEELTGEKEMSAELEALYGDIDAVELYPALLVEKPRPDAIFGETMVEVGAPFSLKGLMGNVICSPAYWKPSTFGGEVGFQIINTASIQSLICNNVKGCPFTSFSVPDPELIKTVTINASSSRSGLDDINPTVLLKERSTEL
Briefly: Inhibition of COX2 by microplate reader.

For experiment [2], the target named is Prostaglandin G/H synthase 1 (Homo sapiens, UniProt P23219). As to the kind of experiment: Inhibition of COX1 by microplate reader.

The structures appear in SMILES notation.

For orientation: IC50 means the point on the concentration scale where inhibition reaches its midpoint. Read a low IC50 as greater potency in that assay.

Sequence of Prostaglandin G/H synthase 1 (P23219 whole entry): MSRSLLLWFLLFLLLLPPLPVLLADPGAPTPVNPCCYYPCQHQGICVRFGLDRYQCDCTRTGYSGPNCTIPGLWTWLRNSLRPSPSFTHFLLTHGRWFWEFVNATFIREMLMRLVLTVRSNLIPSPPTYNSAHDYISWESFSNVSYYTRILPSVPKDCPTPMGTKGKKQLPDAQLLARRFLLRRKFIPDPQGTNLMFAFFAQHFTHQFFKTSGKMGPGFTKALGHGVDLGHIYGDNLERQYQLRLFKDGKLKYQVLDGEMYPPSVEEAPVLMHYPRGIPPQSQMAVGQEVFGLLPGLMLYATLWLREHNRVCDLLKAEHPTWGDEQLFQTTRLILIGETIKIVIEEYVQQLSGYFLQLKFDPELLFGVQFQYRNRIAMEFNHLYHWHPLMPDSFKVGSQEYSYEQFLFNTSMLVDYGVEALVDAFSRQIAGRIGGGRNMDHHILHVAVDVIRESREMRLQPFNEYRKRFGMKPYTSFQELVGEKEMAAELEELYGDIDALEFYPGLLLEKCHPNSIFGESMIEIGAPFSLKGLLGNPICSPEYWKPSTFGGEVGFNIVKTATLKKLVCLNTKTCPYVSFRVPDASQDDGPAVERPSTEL

On to `COc1ccc(/C=C/C(=O)O[C@H]2[C@H](O[C@H]3[C@H](O)[C@@H](O)[C@H](O[C@@H]4CO[C@@H](O[C@@H]5[C@@H](O)[C@H](C)O[C@@H](O[C@H]6[C@H](O[C@H]7CC[C@@]8(C)[C@@H](CC[C@]9(C)[C@@H]8CC=C8[C@@H]%10CC(C)(C)CC[C@]%10(C(=O)O[C@@H]%10O[C@H](CO[C@@H]%11O[C@H](CO)[C@@H](O[C@@H]%12O[C@@H](C)[C@H](O)[C@@H](O)[C@H]%12O)[C@H](O)[C@H]%11O)[C@@H](O)[C@H](O)[C@H]%10O)CC[C@]89C)[C@]7(C)CO)OC[C@@H](O)[C@@H]6O)[C@@H]5O)[C@H](O)[C@@H]4O)O[C@@H]3CO)O[C@H](CO)[C@@H](O)[C@@H]2O[C@@H]2O[C@H](CO[C@@H]3O[C@@H](C)[C@H](O)[C@@H](O)[C@H]3O)[C@@H](O[C@@H]3O[C@H](CO)[C@@H](O)[C@H](O)[C@H]3O)[C@H](O)[C@H]2O)cc1O` [CLEMATOCHINENOSIDE C], for which the half-maximal inhibitory concentration (IC50) in experiment [1] amounted to 6.1 µM; in experiment [2], 6.3 µM.

In the case of `COc1ccc(/C=C/C(=O)O[C@@H]2[C@@H](O)[C@H](O[C@H]3[C@H](O)[C@@H](O)[C@H](O[C@@H]4CO[C@@H](O[C@@H]5[C@@H](O)[C@H](C)O[C@@H](O[C@H]6[C@H](O[C@H]7CC[C@@]8(C)[C@@H](CC[C@]9(C)[C@@H]8CC=C8[C@@H]%10CC(C)(C)CC[C@]%10(C(=O)O[C@@H]%10O[C@H](CO[C@@H]%11O[C@H](CO)[C@@H](O[C@@H]%12O[C@@H](C)[C@H](O)[C@@H](O)[C@H]%12O)[C@H](O)[C@H]%11O)[C@@H](O)[C@H](O)[C@H]%10O)CC[C@]89C)[C@]7(C)CO)OC[C@@H](O)[C@@H]6O)[C@@H]5O)[C@H](O)[C@@H]4O)O[C@@H]3CO)O[C@H](CO)[C@H]2O)cc1O` [CLEMATOCHINENOSIDE D], the IC50 was found to be 7.8 µM in experiment [1] and 8.8 µM in experiment [2].

With `COc1ccc(/C=C/C(=O)OC[C@H]2O[C@@H](O[C@H]3[C@H](O)[C@@H](O)[C@H](O[C@@H]4CO[C@@H](O[C@@H]5[C@@H](O)[C@H](C)O[C@@H](O[C@H]6[C@H](O[C@H]7CC[C@@]8(C)[C@@H](CC[C@]9(C)[C@@H]8CC=C8[C@@H]%10CC(C)(C)CC[C@]%10(C(=O)O[C@@H]%10O[C@H](CO[C@@H]%11O[C@H](CO)[C@@H](O[C@@H]%12O[C@@H](C)[C@H](O)[C@@H](O)[C@H]%12O)[C@H](O)[C@H]%11O)[C@@H](O)[C@H](O)[C@H]%10O)CC[C@]89C)[C@]7(C)CO)OC[C@@H](O)[C@@H]6O)[C@@H]5O)[C@H](O)[C@@H]4O)O[C@@H]3CO)[C@H](O)[C@@H](O)[C@@H]2O)cc1O` [CLEMATOCHINENOSIDE E], the values for the IC50 in experiment [1] and in experiment [2] were 7.9 µM and 8.9 µM, respectively.

Take `COc1ccc(/C=C/C(=O)OC[C@H]2O[C@@H](O[C@H]3[C@H](O)[C@@H](O)[C@H](O[C@@H]4CO[C@@H](O[C@@H]5[C@@H](O)[C@H](C)O[C@@H](O[C@H]6[C@H](O[C@H]7CC[C@]8(C)[C@H]9CC=C%10[C@@H]%11CC(C)(C)CC[C@]%11(C(=O)O[C@@H]%11O[C@H](CO[C@@H]%12O[C@H](CO)[C@@H](O[C@@H]%13O[C@@H](C)[C@H](O)[C@@H](O)[C@H]%13O)[C@H](O)[C@H]%12O)[C@@H](O)[C@H](O)[C@H]%11O)CC[C@@]%10(C)[C@]9(C)CC[C@H]8C7(C)C)OC[C@@H](O)[C@@H]6O)[C@@H]5O)[C@H](O)[C@@H]4O)O[C@@H]3CO)[C@H](O)[C@@H](O)[C@@H]2O)cc1O` [CLEMATOCHINENOSIDE F]: the half-maximal inhibitory concentration (IC50) was 7.2 µM in experiment [1] and 7.8 µM in experiment [2].

For `COc1ccc(/C=C/C(=O)O[C@H]2[C@H](O[C@H]3[C@H](O)[C@@H](O)[C@H](O[C@@H]4CO[C@@H](O[C@@H]5[C@@H](O)[C@H](C)O[C@@H](O[C@H]6[C@H](O[C@H]7CC[C@@]8(C)[C@@H](CC[C@]9(C)[C@@H]8CC=C8[C@@H]%10CC(C)(C)CC[C@]%10(C(=O)O[C@@H]%10O[C@H](CO[C@@H]%11O[C@H](CO)[C@@H](O[C@@H]%12O[C@@H](C)[C@H](O)[C@@H](O)[C@H]%12O)[C@H](O)[C@H]%11O)[C@@H](O)[C@H](O)[C@H]%10O)CC[C@]89C)[C@]7(C)CO)OC[C@@H](O)[C@@H]6O)[C@@H]5O)[C@H](O)[C@@H]4O)O[C@@H]3CO)O[C@H](CO)[C@@H](O)[C@@H]2O[C@@H]2O[C@H](CO)[C@@H](O)[C@H](O)[C@H]2O)cc1O` [CLEMATOCHINENOSIDE G], the values for the 50% inhibitory concentration (IC50) in experiment [1] and in experiment [2] were 8.9 µM and 7.5 µM, respectively.

On to `C[C@@H]1O[C@@H](O[C@H]2[C@H](O)[C@@H](O)[C@H](OC[C@H]3O[C@@H](OC(=O)[C@]45CCC(C)(C)C[C@H]4C4=CC[C@@H]6[C@@]7(C)CC[C@H](O[C@@H]8OC[C@H](O)[C@H](O)[C@H]8O[C@@H]8O[C@@H](C)[C@H](O)[C@@H](O[C@@H]9OC[C@@H](O[C@@H]%10O[C@H](CO)[C@@H](O[C@@H]%11O[C@H](CO)[C@@H](O)[C@H](O)[C@H]%11O)[C@H](O)[C@H]%10O)[C@@H](O)[C@H]9O)[C@H]8O)C(C)(C)[C@@H]7CC[C@@]6(C)[C@]4(C)CC5)[C@H](O)[C@@H](O)[C@@H]3O)O[C@@H]2CO)[C@H](O)[C@H](O)[C@H]1O` [CLEMATOMANDSHURICA SAPONIN C], for which the half-inhibitory concentration (IC50) in experiment [1] and in experiment [2] was over 50 µM in each case.

Turning to `C[C@@H]1O[C@@H](O[C@H]2[C@H](O[C@H]3CC[C@]4(C)[C@H]5CC=C6[C@@H]7CC(C)(C)CC[C@]7(C(=O)O[C@@H]7O[C@H](CO[C@@H]8O[C@H](CO)[C@@H](O[C@@H]9O[C@@H](C)[C@H](O)[C@@H](O)[C@H]9O)[C@H](O)[C@H]8O)[C@@H](O)[C@H](O)[C@H]7O)CC[C@@]6(C)[C@]5(C)CC[C@H]4C3(C)C)OC[C@H](O)[C@@H]2O)[C@H](O)[C@H](O)[C@H]1O` [HEDERASAPONIN B], the IC50 in experiment [1] and in experiment [2] was over 50 µM each time.

As for `C[C@@H]1O[C@@H](O[C@H]2[C@H](O)[C@@H](O)[C@H](OC[C@H]3O[C@@H](OC(=O)[C@]45CCC(C)(C)C[C@H]4C4=CC[C@@H]6[C@@]7(C)CC[C@H](O[C@@H]8OC[C@H](O)[C@H](O)[C@H]8O[C@@H]8O[C@@H](C)[C@H](O)[C@@H](O[C@@H]9OC[C@@H](O)[C@@H](O)[C@H]9O)[C@H]8O)C(C)(C)[C@@H]7CC[C@@]6(C)[C@]4(C)CC5)[C@H](O)[C@@H](O)[C@@H]3O)O[C@@H]2CO)[C@H](O)[C@H](O)[C@H]1O` [HUZHANGOSIDE B], the concentration for half-maximal inhibition (IC50) in experiment [1] and in experiment [2] was over 50 µM in each case.

Take `C[C@@H]1O[C@@H](O[C@H]2[C@H](O)[C@@H](O)[C@H](OC[C@H]3O[C@@H](OC(=O)[C@]45CCC(C)(C)C[C@H]4C4=CC[C@@H]6[C@@]7(C)CC[C@H](O[C@@H]8OC[C@H](O)[C@H](O)[C@H]8O[C@@H]8O[C@@H](C)[C@H](O)[C@@H](O[C@@H]9OC[C@@H](O)[C@@H](O)[C@H]9O)[C@H]8O)[C@@](C)(CO)[C@@H]7CC[C@@]6(C)[C@]4(C)CC5)[C@H](O)[C@@H](O)[C@@H]3O)O[C@@H]2CO)[C@H](O)[C@H](O)[C@H]1O` [HUZHANGOSIDE D]: the IC50 in experiment [1] and in experiment [2] was over 50 µM throughout.

As to `C[C@@H]1O[C@@H](O[C@H]2[C@H](O)[C@@H](O)[C@H](OC[C@H]3O[C@@H](OC(=O)[C@]45CCC(C)(C)C[C@H]4C4=CC[C@@H]6[C@@]7(C)CC[C@H](O)[C@@](C)(CO)[C@@H]7CC[C@@]6(C)[C@]4(C)CC5)[C@H](O)[C@@H](O)[C@@H]3O)O[C@@H]2CO)[C@H](O)[C@H](O)[C@H]1O` [KIZUTA CIRENSENOSIDE O SAPONIN K3], the IC50 in experiment [1] and in experiment [2] was over 50 µM in each case.

Take `C[C@@H]1O[C@@H](O[C@H]2[C@H](O[C@H]3CC[C@]4(C)[C@H]5CC=C6[C@@H]7CC(C)(C)CC[C@]7(C(=O)O[C@@H]7O[C@H](CO[C@@H]8O[C@H](CO)[C@@H](O[C@@H]9O[C@@H](C)[C@H](O)[C@@H](O)[C@H]9O)[C@H](O)[C@H]8O)[C@@H](O)[C@H](O)[C@H]7O)CC[C@@]6(C)[C@]5(C)CC[C@H]4C3(C)CO)OC[C@H](O)[C@@H]2O)[C@H](O)[C@H](O)[C@H]1O` (some centres not stated) [KIZUTA SAPONIN K12]: the IC50 in experiment [1] and in experiment [2] was over 50 µM throughout.
